# Test results as given in patent publication US7833531B2, “Method for treating insulin sensitivity by long-acting GLP-1 receptor mimetibody agonists” (Centocor, Inc., priority 2006, dated 2010).
# “Also recorded” adds a separate entry of the source.
# Legend:
# Assay type in all cases: in vivo
# [1] = tested on: Sprague-Dawley rats; test: Intracerebroventricular (icv) dosing in rats: food intake, water intake, body weight; conditions: icv 3 nmols
# Text: Sprague-Dawley rats weighing 250-350 g were cannulized into the lateral ventricle at the following coordinates: −0.80 mm anterior, +1.2 mm lateral to bregma, −3.2 mm ventral to bregma. Animals were submitted for Angiotensin II testing to confirm that the cannulas were placed appropriately. Rats were acclimated to a reversed light/dark cycle and to handling. A 24-hour fasted/refed measurement was taken after a single PBS injection in order to establish a feeding baseline. Animals were evenly distributed according to 24-hour food intake from PBS injections (3 groups of 10 animals). Seven-ten days following PBS injection, rats were fasted for 24 hours and were dosed icv prior to entering the dark cycle.
# [2] = tested on: DIO mice; test: VLDL production in DIO mice after acute treatment
# Method: (§1) The effect of acute treatment of CNTO 736 (Table 4, SEQ ID NO:70) on insulin sensitivity and lipid metabolism was evaluated in C57Bl mice maintained on a high fat diet for 10 weeks (DIO mice). […] The effect of chronic treatment of CNTO 736 on insulin sensitivity and lipid metabolism was evaluated in C57Bl mice maintained on a high fat diet for 10 weeks.
# (§2) Blood samples (20 μl) were taken at t=0, 10, 20, 40 and 60 minutes after injection to determine the concentration of plasma triglycerides (TG). VLDL-TG production was calculated from the slope of the concentration curve and expressed as gmol/kg/min. Turnover rates of glucose (μmol/min/kg) was calculated in basal and hyperinsulinemic conditions as the rate of tracer infusion (dpm/min) divided by the plasma specific activity of 14C-glucose (dpm/μmol). The ratio was corrected for body weight. Endogenous glucose production (EGP) was calculated as the difference between the tracer-derived rate of glucose appearance and the infusion rate of glucose. Glucose disposal was calculated based on the concentration of 14C-glucose normalized to infusion rate of glucose. The statistical significance (p<0.05) in various measures of glucose turnover and VLDL production among groups was tested by analysis of variance.
# [3] = tested on: DIO mice; test: VLDL production in DIO mice after chronic treatment; conditions: either dose of CNTO 736
# Method: as §1, §2
# [4] = tested on: DIO mice; test: Hyperinsulinemic euglycemic clamp, body weights and plasma parameters in DIO mice after acute treatment; conditions: for Body weight / FFA / Glucose / Glycerol / Insulin: single i.p. injection, mean ± SD; for FFA / Glucose / Glycerol / Insulin: plasma
# Method: (§3) The effect of acute treatment of CNTO 736 (Table 4, SEQ ID NO:70) on insulin sensitivity and lipid metabolism was evaluated in C57Bl mice maintained on a high fat diet for 10 weeks (DIO mice). […] The effect of chronic treatment of CNTO 736 on insulin sensitivity and lipid metabolism was evaluated in C57Bl mice maintained on a high fat diet for 10 weeks. […] The hyperinsulinemic-euglycemic clamp was performed under Acepromazine (6.25 mg/kg)/Midazolam (6.25 mg/kg)/Fentanyl (0.3125 mg/kg) anaesthesia in the following manner. Mice had free access to high fat food and water until 10 hours prior to the clamp. […] Subsequently, insulin was administered in a primed (4.5 mU) continuous (6.8 mU/h) i.v. infusion for approximately 2 h to attain steady state circulating insulin levels of 4 ng/ml. […] VLDL-TG production was calculated from the slope of the concentration curve and expressed as gmol/kg/min. Turnover rates of glucose (μmol/min/kg) was calculated in basal and hyperinsulinemic conditions as the rate of tracer infusion (dpm/min) divided by the plasma specific activity of 14C-glucose (dpm/μmol). The ratio was corrected for body weight. Endogenous glucose production (EGP) was calculated as the difference between the tracer-derived rate of glucose appearance and the infusion rate of glucose. Glucose disposal was calculated based on the concentration of 14C-glucose normalized to infusion rate of glucose. The statistical significance (p<0.05) in various measures of glucose turnover and VLDL production among groups was tested by analysis of variance.
# [5] = tested on: DIO mice; test: Hyperinsulinemic euglycemic clamp, body weights and plasma parameters in DIO mice after chronic treatment; conditions: for Body weight / FFA / Glycerol / Insulin / Glucose: daily i.p. injections weeks 7 through 10, mean ± SD; for FFA / Glycerol / Insulin / Glucose: plasma
# Method: as §3, with “variance. […] Two hours after the last dose, mice were subjected to hyperinsulinemic euglycemic clamp.” for “variance.”
# [6] = 24 hours fasted rats, first 12 hours following dosing
# [7] = second 12 hours following dosing (12-24 hours)
# [8] = acute, i.p., CNTO 736 1 mg/kg and 0.1 mg/kg, exenatide 7.1 ug/ml, clamp 2 hours post dosing, differences do not reach statistical significance
# [9] = acute, CNTO 736 0.1 mgk, Hyperinsulinemic
# [10] = acute, CNTO 736 1 mgk, Hyperinsulinemic
# [11] = chronic, CNTO 736 0.1 mgk, Basal
# [12] = chronic, CNTO 736 0.1 mgk, Hyperinsulinemic
# [13] = chronic, CNTO 736 1 mgk, Hyperinsulinemic
substance,measurement,setting,value
"CNTO 736: a GLP-1 receptor agonist, a GLP-1 mimetibody construct; sequence in Table 4 (SEQ ID NO:70)",food intake,[1]; [6],significant reduction
same,water intake,[1]; [6],significant reduction
same,food intake,[1]; [7],significant reduction in food intake
same,water intake,[1]; [7],observed only with exendin-4 treatment
same,basal or hyperinsulinemic rate of VLDL production,[2],did not change
same,basal and hyperinsulinemic rate of VLDL production,[3],significantly decreased; also recorded: decreases VLDL production
same,glycerol turnover (lipolysis),"[4]; acute administration, either dose, basal (fasting) or hyperinsulinemic conditions",did not affect glycerol turnover
same,basal glucose production,[4]; [8],tend to decrease the basal glucose production
same,whole body glucose disposal,[4]; [8],increase the whole body glucose disposal
same,Body weight,"[4]; acute, CNTO 736 0.1 mgk, Basal",31.3 ± 1.6 g
same,Body weight,[4]; [9],31.3 ± 1.6 g
same,Body weight,"[4]; acute, CNTO 736 1 mgk, Basal",31.2 ± 2.2 g
same,Body weight,[4]; [10],31.2 ± 2.2 g
same,FFA,"[4]; acute, CNTO 736 0.1 mgk, Basal",1.1 ± 0.5 mmol/L
same,Glucose,"[4]; acute, CNTO 736 0.1 mgk, Basal",5.5 ± 1.2 mmol/L
same,Glycerol,"[4]; acute, CNTO 736 0.1 mgk, Basal",0.2 ± 0.1 mmol/L
same,Insulin,"[4]; acute, CNTO 736 0.1 mgk, Basal",1.1 ± 0.8 ng/mL
same,FFA,[4]; [9],0.7 ± 0.3 mmol/L
same,Glucose,[4]; [9],7.3 ± 0.5 mmol/L
same,Glycerol,[4]; [9],0.1 ± 0.1 mmol/L
same,Insulin,[4]; [9],3.5 ± 1.3 ng/mL
same,FFA,"[4]; acute, CNTO 736 1 mgk, Basal",1.1 ± 0.5 mmol/L
same,Glycerol,"[4]; acute, CNTO 736 1 mgk, Basal",0.2 ± 0.1 mmol/L
same,Insulin,"[4]; acute, CNTO 736 1 mgk, Basal",0.9 ± 0.6 ng/mL
same,FFA,[4]; [10],0.6 ± 0.4 mmol/L
same,Glucose,[4]; [10],8.0 ± 0.8 mmol/L
same,Glycerol,[4]; [10],0.1 ± 0.1 mmol/L
same,Insulin,[4]; [10],4.5 ± 1.7 ng/mL
same,glycerol turnover (lipolysis),"[5]; chronic administration, either dose, basal (fasting) or hyperinsulinemic conditions",did not affect glycerol turnover
same,insulin action / peripheral insulin sensitivity,"[5]; chronic dosing, mice with diet-induced obesity",improve insulin action; also recorded: significantly improves peripheral insulin sensitivity
same,Body weight,[5]; [11],26.1 ± 1.9 g
same,Body weight,[5]; [12],26.1 ± 1.9 g
same,Body weight,[5]; [13],25.1 ± 1.3 g
same,gluconeogenesis in the fasting state (de novo glucose production),"[5]; chronic, i.p. daily for 4 weeks",significantly decreased gluconeogenesis; also recorded: inhibits hepatic gluconeogenesis
same,basal hepatic glucose production,"[5]; chronic, i.p. daily for 4 weeks, both doses of CNTO 736 (1 or 0.1 mg/kg), exendin-4 7.1 μg/kg",significantly decreased
same,insulin-inhibition of hepatic glucose production,"[5]; chronic, i.p. daily for 4 weeks, both doses of CNTO 736, exendin-4 7.1 μg/kg",increased insulin-inhibition of hepatic glucose production
same,whole body glucose disposal in the hyperinsulinemic state,"[5]; chronic, i.p. daily for 4 weeks, high dose of CNTO 736 (1 mg/kg), exendin-4 7.1 μg/kg",significantly increased
same,gluconeogenesis in the fasting state (de novo glucose production),"[5]; chronic, i.p. daily for 4 weeks, listed as CNT0736",inhibited de novo glucose production
same,FFA,[5]; [11],1.1 ± 0.3 mmol/L
same,Glycerol,[5]; [11],0.2 ± 0.0 mmol/L
same,Insulin,[5]; [11],1.1 ± 0.6 ng/mL
same,FFA,[5]; [12],0.5 ± 0.1 mmol/L
same,Glucose,[5]; [12],7.6 ± 1.1 mmol/L
same,Glycerol,[5]; [12],0.1 ± 0.1 mmol/L
same,Insulin,[5]; [12],4.6 ± 1.0 ng/mL
same,FFA,"[5]; chronic, CNTO 736 1 mgk, Basal",1.1 ± 0.2 mmol/L
same,Glycerol,"[5]; chronic, CNTO 736 1 mgk, Basal",0.2 ± 0.1 mmol/L
same,Insulin,"[5]; chronic, CNTO 736 1 mgk, Basal",1.4 ± 1.3 ng/mL
same,FFA,[5]; [13],0.4 ± 0.1 mmol/L
same,Glucose,[5]; [13],7.6 ± 0.9 mmol/L
same,Glycerol,[5]; [13],0.1 ± 0.1 mmol/L
same,Insulin,[5]; [13],5.0 ± 1.9 ng/mL
